Measured values taken from patent US20260167926A1, “SPINAL CORD INJURY TREATMENT NEUROSPHERE” (KEIO UNIVERSITY, priority 2019, published 2026).

Legend:
[1] = test system: human iPS cell-derived neurospheres; assay: Neurite length after differentiation of neurospheres into neurons; type: cell-based; details: neurospheres cultured one day with inhibitor, then differentiated; 7th and 14th day; 201B7 and 414C2; compared to the untreated group
Protocol: Specifically, in an in vitro experimental system, human iPS cell-derived neurospheres were treated with a γ-secretase inhibitor and a p38 MAPK inhibitor to induce differentiation into neurons. Subsequently, the length of the neurite was measured and evaluated.
DAPT was used as the γ-secretase inhibitor. In addition, SB203580 (CAS Number: 152121-47-6) was used as the p38 MAPK inhibitor. First, human iPS cell-derived neurospheres were cultured for one day in the presence of the γ-secretase inhibitor alone, in the presence of the p38 MAPK inhibitor alone, or in the presence of the γ-secretase inhibitor and the p38 MAPK inhibitor.
Subsequently, various cells were seeded on a poly-L-ornithine/fibronectin-coated 48-well chamber slide (manufactured by Costar Corporation) at a cell density of 1×10^5 cells/mL, and the cells were cultured in a growth factor-free medium at in a 95% air environment at 37° C. and 5% CO2 for 14 days and were differentiated into neurons. Subsequently, on the 7th day and the 14th day after the initiation of differentiation induction, the cells were fixed with 4% paraformaldehyde in 0.1 M PBS, and the length of the neurite was measured.
FIG. 13A is a graph showing the results for neurons derived from 201B7 cells (n=5). In addition, FIG. 13B is a graph showing the results for neurons derived from 414C2 cells (n=5).

p38 MAPK [2] = assay: Immunostaining of p38 MAPK, phosphorylated p38 MAPK and βIII-tubulin in differentiated cells; type: cell-based, human; details: 14 days after initiation of differentiation induction
Protocol: Immunostaining of p38 MAPK, phosphorylated p38 MAPK, and βIII-tubulin was performed using cells obtained 14 days after the initiation of differentiation induction. In addition, Hoechst 33342 (CAS Number: 23491-52-3) was used to stain the cell nuclei.
FIG. 14A and FIG. 14B are representative microscopic images showing the results of immunostaining of the cells in the GSI (+) group. In FIG. 14A and FIG. 14B, “Pp38” indicates phosphorylated p38 MAPK, and “Merge” indicates the results of superimposing microscopic images. The scale bar is 20μm.

p38 MAPK [3] = assay: Immunostaining of phosphorylated p38 MAPK in neurons derived from 201B7 neurospheres; type: cell-based, human; details: 201B7 neurospheres cultured one day at final concentration of 10 μM, differentiated 14 days
Protocol: Phosphorylation of p38 MAPK in human iPS cell-derived neurospheres treated with a γ-secretase inhibitor was examined.
Specifically, neurospheres derived from 201B7 cells, which are cells of a human iPS cell strain, were cultured for one day in the presence of a secretase inhibitor at a final concentration of 10 μM. Subsequently, the neurospheres were cultured in a growth factor-free medium in a 95% air environment at 37° C. and 5% CO2 for 14 days and were differentiated into nerurons. Subsequently, on the 14th day after the initiation of differentiation induction, the cells were fixed with 4% paraformaldehyde in 0.1 M PBS and observed. DAPT was used as the γ-secretase inhibitor. Immunostaining of phosphorylated p38 MAPK and βIII-tubulin was performed. In addition, Hoechst 33342 (CAS Number: 23491-52-3) was used to stain the cell nuclei.
FIG. 26 is representative microscopic images showing the results of immunostaining. In FIG. 26, “Pp38” represents phosphorylated p38 MAPK, and “Merge” indicates the results of superimposing microscopic images. The scale bar is 20 μm.

| SMILES | neurite outgrowth (length of the neurite) [1] | localization of p38-positive region relative to βIII-tubulin-positive neurons (p38 MAPK [2]) | localization of phosphorylated p38-positive region (p38 MAPK [2]) | phosphorylation of p38 MAPK in neurons derived from the neurospheres (p38 MAPK [3]) |
| --- | --- | --- | --- | --- |
| C[S+]([O-])c1ccc(-c2nc(-c3ccncc3)c(-c3ccc(F)cc3)[nH]2)cc1 (centres unmarked) [p38 MAPK inhibitor, SB203580] | significantly decreased | – | – | – |
| C[C@H](NC(=O)Cc1cc(F)cc(F)c1)C(=O)N[C@H](C(=O)OC(C)(C)C)c1ccccc1 [γ-secretase inhibitor, DAPT] | significantly large | co-localized | in the nucleus | enhanced |
